Target: Stromelysin-1 (MMP-3) (Homo sapiens) (UniProt P08254)
Experiment: Tested for the inhibition of prostromelysin activation with no preincubation period

Sequence of Stromelysin-1 (MMP-3) (Homo sapiens) (P08254 whole entry, looked up): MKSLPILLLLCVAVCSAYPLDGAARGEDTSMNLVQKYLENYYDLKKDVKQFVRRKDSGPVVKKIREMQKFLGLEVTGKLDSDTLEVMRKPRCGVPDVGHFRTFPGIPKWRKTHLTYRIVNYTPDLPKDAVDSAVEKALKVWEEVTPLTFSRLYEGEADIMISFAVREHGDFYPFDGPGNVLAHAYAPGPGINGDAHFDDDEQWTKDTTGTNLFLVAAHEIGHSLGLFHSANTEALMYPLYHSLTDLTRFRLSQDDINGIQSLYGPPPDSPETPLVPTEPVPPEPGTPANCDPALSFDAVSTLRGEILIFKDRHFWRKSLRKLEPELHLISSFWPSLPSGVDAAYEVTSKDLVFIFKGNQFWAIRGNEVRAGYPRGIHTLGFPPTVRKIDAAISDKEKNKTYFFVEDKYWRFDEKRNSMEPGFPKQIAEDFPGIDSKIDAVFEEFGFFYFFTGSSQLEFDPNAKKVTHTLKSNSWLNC

| IC50 [µM] | Structure (SMILES) |
| --- | --- |
| 53 | COc1ccc(OC)c(-n2sc3ncccc3c2=O)c1 [2-(2,5-Dimethoxy-phenyl)-isothiazolo[5,4-b]pyridin-3-one] |
| 62 | COc1ccc(-n2sc3ncccc3c2=O)c(OC)c1 [2-(2,4-Dimethoxy-phenyl)-isothiazolo[5,4-b]pyridin-3-one] |

Reference: BindingDB's records for doi:10.1021/jm00045a012 (Dupont Pharmaceuticals, 1994)
